Source: the CheMixHub drug solubility set

Assay: xn = mol fraction of the nth substance listed, in the solute-free solvent

COC(=O)C1=C(C)NC(C)=C(C(=O)OCC(C)C)C1c1ccccc1[N+](=O)[O-] (centres undefined) + CC(C)O + O
solubility (g/100 g solution)
Conditions	278.15 K	283.15 K	288.15 K	293.15 K	298.15 K	303.15 K	308.15 K	313.15 K	318.15 K
x2 = 0.06974	0.651	0.819	1.02	1.25	1.49	1.76	2.04	2.35	2.71
x2 = 0.1666	1.78	2.22	2.67	3.18	3.8	4.49	5.28	6.22	7.31
x2 = 0.3103	2.4	2.84	3.46	4	4.73	5.54	6.37	7.36	8.44
x2 = 0.5454	3.18	3.82	4.5	5.27	6.2	7.21	8.34	9.68	11.1

O=C(CC(=O)c1ccccc1)c1ccccc1 + CC(C)O + O
solubility (g/100 g solution)
Conditions	278.15 K	283.15 K	288.15 K	293.15 K	298.15 K	303.15 K	308.15 K	313.15 K	318.15 K
x2 = 0.2	0.0987	0.114	0.14	0.185	0.222	0.277	0.338	0.422	0.528
x2 = 0.4	0.264	0.353	0.459	0.618	0.711	1.05	1.26	1.73	4.77
x2 = 0.6	0.61	0.936	1.23	1.34	1.47	1.91	2.36	3.27	4.94
x2 = 0.8	0.977	1.43	1.48	2.1	2.32	2.93	3.69	4.5	7.02

O=c1[nH]cc(F)c(=O)[nH]1 + CCCO + C1CCOC1
solubility (g/100 g solution)
Conditions	283.15 K	288.15 K	293.15 K	298.15 K	303.15 K	308.15 K	313.15 K	318.15 K	323.15 K
x2 = 0.2307	0.148	0.169	0.195	0.226	0.263	0.313	0.373	0.452	0.536
x2 = 0.4444	0.17	0.196	0.225	0.258	0.299	0.351	0.42	0.496	0.588
x2 = 0.6428	0.201	0.229	0.258	0.297	0.34	0.397	0.467	0.543	0.625
x2 = 0.8276	0.228	0.263	0.298	0.34	0.393	0.457	0.539	0.651	0.763

COC(=O)C1=C(C)NC(C)=C(C(=O)OCC(C)C)C1c1ccccc1[N+](=O)[O-] (centres undefined) + CCCO + O
solubility (g/100 g solution)
Conditions	278.15 K	283.15 K	288.15 K	293.15 K	298.15 K	303.15 K	308.15 K	313.15 K	318.15 K
x2 = 0.03225	0.131	0.174	0.219	0.268	0.346	0.422	0.526	0.638	0.78
x2 = 0.06974	0.532	0.647	0.806	0.96	1.16	1.37	1.62	1.92	2.23
x2 = 0.1139	0.997	1.25	1.49	1.81	2.21	2.6	3.12	3.63	4.27
x2 = 0.1666	1.41	1.75	2.12	2.56	3.1	3.6	4.37	5.07	5.97
x2 = 0.2307	1.69	2.05	2.52	3.08	3.7	4.42	5.22	6.16	7.24
x2 = 0.3103	2.02	2.49	2.99	3.59	4.3	5.12	6.03	7.01	8.15
x2 = 0.4117	2.29	2.82	3.37	4.11	4.82	5.73	6.73	7.81	9.08
x2 = 0.5454	2.47	3.06	3.68	4.45	5.28	6.23	7.23	8.39	9.79
x2 = 0.7297	2.47	3.01	3.69	4.38	5.22	6.28	7.42	8.7	10
